Experimental data from the NIST ThermoML archive (doi:10.1016/j.tca.2018.01.023).
Numbers after ± are expanded uncertainties.

Assay: molar heat capacity at constant pressure
Details: 101.33 kPa, Crystal, Small sample (50 mg) DSC

[Ca+2].[O]=[Mo](=[O])([O-])[O-] [calcium molybdate(VI)]
Details	molar heat capacity at constant pressure [J/K/mol]
255.5 K	107.3 ± 4.6
255.9 K	107.4 ± 4.6
256.9 K	107.5 ± 4.6
257.9 K	107.6 ± 4.6
258.9 K	107.7 ± 4.6
259.9 K	107.8 ± 4.6
260.9 K	107.8 ± 4.6
261.9 K	107.9 ± 4.6
262.9 K	108 ± 4.6
263.9 K	108.2 ± 4.6
264.9 K	108.3 ± 4.6
265.9 K	108.4 ± 4.6
266.9 K	108.6 ± 4.6
267.9 K	108.8 ± 4.6
268.9 K	109 ± 4.6
269.9 K	109.2 ± 4.6
270.9 K	109.4 ± 4.6
272 K	109.6 ± 4.7
273 K	109.8 ± 4.7
274 K	110 ± 4.7
275 K	110.3 ± 4.7
276 K	110.5 ± 4.7
277 K	110.7 ± 4.7
278 K	111 ± 4.7
279 K	111.2 ± 4.7
280 K	111.5 ± 4.7
281 K	111.6 ± 4.7
282 K	111.8 ± 4.7
283 K	112 ± 4.8
284 K	112.2 ± 4.8
285 K	112.3 ± 4.8
286 K	112.5 ± 4.8
287 K	112.7 ± 4.8
288 K	112.9 ± 4.8
289 K	113 ± 4.8
290.1 K	113.2 ± 4.8
291.1 K	113.4 ± 4.8
292.1 K	113.6 ± 4.8
293.1 K	113.8 ± 4.8
294.1 K	114 ± 4.8
295.1 K	114.1 ± 4.8
296.1 K	114.3 ± 4.9
297.1 K	114.5 ± 4.9
298.1 K	114.6 ± 4.9
298.15 K	114.2 ± 4.8
299.1 K	114.8 ± 4.9
300.1 K	115 ± 4.9
301.1 K	115.1 ± 4.9
302.1 K	115.3 ± 4.9
303.1 K	115.4 ± 4.9
304.1 K	115.6 ± 4.9
305.1 K	115.7 ± 4.9
306.1 K	115.9 ± 4.9
307.1 K	116.1 ± 4.9
308.2 K	116.2 ± 4.9
309.2 K	116.4 ± 4.9
310 K	116.5 ± 4.9
310.2 K	116.5 ± 4.9
311.2 K	116.7 ± 5
312.2 K	116.8 ± 5
313.2 K	116.9 ± 5
314.2 K	117.1 ± 5
315 K	117.3 ± 5
315.2 K	117.3 ± 5
316.2 K	117.4 ± 5
317.2 K	117.6 ± 5
317.4 K	117.7 ± 5
318.2 K	117.8 ± 5
318.4 K	118 ± 5
319.2 K	117.9 ± 5
319.4 K	118.2 ± 5
320 K	118.1 ± 5
320.2 K	118.1 ± 5
320.4 K	118.4 ± 5
321.2 K	118.3 ± 5
321.4 K	118.5 ± 5
322.2 K	118.5 ± 5
322.4 K	118.6 ± 5
323.2 K	118.6 ± 5
323.4 K	118.8 ± 5
324.2 K	118.7 ± 5
324.4 K	118.9 ± 5
325 K	118.8 ± 5
325.2 K	118.8 ± 5
325.4 K	119 ± 5
326.2 K	119 ± 5
326.4 K	119.1 ± 5.1
327.2 K	119.1 ± 5.1
327.4 K	119.2 ± 5.1
328.2 K	119.2 ± 5.1
328.4 K	119.4 ± 5.1
329.2 K	119.3 ± 5.1
329.4 K	119.5 ± 5.1
330 K	119.5 ± 5.1
330.2 K	119.5 ± 5.1
330.4 K	119.6 ± 5.1
331.3 K	119.7 ± 5.1
331.4 K	119.7 ± 5.1
332.3 K	119.9 ± 5.1
332.4 K	119.8 ± 5.1
333.3 K	120 ± 5.1
333.4 K	120 ± 5.1
334.3 K	120.1 ± 5.1
334.4 K	120.1 ± 5.1
